What was measured:
GluN1-1a F113S/GluN2B WT [1] = target: T1, GluN1-1a F113S/GluN2B WT (Rattus norvegicus, UniProt P35439+Q00960, F113S)
GluN1-1a WT/GluN2B I111A [2] = target: T2, GluN1-1a WT/GluN2B I111A (Rattus norvegicus, UniProt P35439+Q00960, I111A); assay: cell-based
GluN1-1a Y109S/GluN2B WT [3] = target: T3, GluN1-1a Y109S/GluN2B WT (Rattus norvegicus, UniProt P35439+Q00960, Y109S); assay: cell-based
GluN1-1a/GluN2C NMDAR [4] = target: T4, GluN1-1a/GluN2C NMDAR (Rattus norvegicus, UniProt P35439+Q00961); assay: cell-based; conditions: read-out: ion current inhibition % ± SEM, GluN2C
GluN1-1a/GluN2A NMDAR = GluN1-1a/GluN2A NMDAR (Rattus norvegicus, UniProt P35439+Q00959); assay: cell-based; conditions: read-out: ion current inhibition % ± SEM, GluN2A
[5] = target: GluN1-1a/GluN2B NMDAR (wildtype) (Rattus norvegicus, UniProt P35439+Q00960); assay type: cell-based
GluN1-1a S132A/GluN2B WT [6] = target: T5, GluN1-1a S132A/GluN2B WT (Rattus norvegicus, UniProt P35439+Q00960, S132A)
GluN1-1a L135N/GluN2B WT [7] = target: T6, GluN1-1a L135N/GluN2B WT (Rattus norvegicus, UniProt P35439+Q00960, L135N)
GluN1-1a WT/GluN2B F176A [8] = target: T7, GluN1-1a WT/GluN2B F176A (Rattus norvegicus, UniProt P35439+Q00960, F176A)
GluN1-1a WT/GluN2B E236A [9] = target: T8, GluN1-1a WT/GluN2B E236A (Rattus norvegicus, UniProt P35439+Q00960, E236A); assay: cell-based
GluN1-1a/GluN2D NMDAR = GluN1-1a/GluN2D NMDAR (Rattus norvegicus, UniProt P35439+Q62645); assay: cell-based; conditions: read-out: ion current inhibition % ± SEM, GluN2D
GluN1-1a/GluN2C NMDAR [10] = target: T4, GluN1-1a/GluN2C NMDAR; conditions: from inhibition at 10 µM (GluN2C, GluN2D) versus IC50 at GluN2B
GluN1-1a WT/GluN2B F114A [11] = target: T9, GluN1-1a WT/GluN2B F114A (Rattus norvegicus, UniProt P35439+Q00960, F114A)
GluN1-1a WT/GluN2B F114A [12] = target: T9, GluN1-1a WT/GluN2B F114A; assay: cell-based
GluN1-1a WT/GluN2B Q110A [13] = target: T10, GluN1-1a WT/GluN2B Q110A (Rattus norvegicus, UniProt P35439+Q00960, Q110A)
GluN1-1a F113S/GluN2B WT [14] = target: T1, GluN1-1a F113S/GluN2B WT; assay: cell-based
GluN1-1a WT/GluN2B I111A [15] = target: T2, GluN1-1a WT/GluN2B I111A
GluN1-1a WT/GluN2B Q110A [16] = target: T10, GluN1-1a WT/GluN2B Q110A; assay: cell-based
GluN1-1a WT/GluN2B F176Y [17] = target: T11, GluN1-1a WT/GluN2B F176Y (Rattus norvegicus, UniProt P35439+Q00960, F176Y)
GluN1-1a WT/GluN2B F176A [18] = target: T7, GluN1-1a WT/GluN2B F176A; assay: cell-based
GluN1-1a S132A/GluN2B WT [19] = target: T5, GluN1-1a S132A/GluN2B WT; assay: cell-based
GluN1-1a Y109S/GluN2B WT [20] = target: T3, GluN1-1a Y109S/GluN2B WT
GluN1-1a WT/GluN2B F176Y [21] = target: T11, GluN1-1a WT/GluN2B F176Y; assay: cell-based
GluN1-1a L135N/GluN2B WT [22] = target: T6, GluN1-1a L135N/GluN2B WT; assay: cell-based
GluN1-1a WT/GluN2B E236A [23] = target: T8, GluN1-1a WT/GluN2B E236A

T8 sequence (Q00960 27-1482 E236A, other chains not shown): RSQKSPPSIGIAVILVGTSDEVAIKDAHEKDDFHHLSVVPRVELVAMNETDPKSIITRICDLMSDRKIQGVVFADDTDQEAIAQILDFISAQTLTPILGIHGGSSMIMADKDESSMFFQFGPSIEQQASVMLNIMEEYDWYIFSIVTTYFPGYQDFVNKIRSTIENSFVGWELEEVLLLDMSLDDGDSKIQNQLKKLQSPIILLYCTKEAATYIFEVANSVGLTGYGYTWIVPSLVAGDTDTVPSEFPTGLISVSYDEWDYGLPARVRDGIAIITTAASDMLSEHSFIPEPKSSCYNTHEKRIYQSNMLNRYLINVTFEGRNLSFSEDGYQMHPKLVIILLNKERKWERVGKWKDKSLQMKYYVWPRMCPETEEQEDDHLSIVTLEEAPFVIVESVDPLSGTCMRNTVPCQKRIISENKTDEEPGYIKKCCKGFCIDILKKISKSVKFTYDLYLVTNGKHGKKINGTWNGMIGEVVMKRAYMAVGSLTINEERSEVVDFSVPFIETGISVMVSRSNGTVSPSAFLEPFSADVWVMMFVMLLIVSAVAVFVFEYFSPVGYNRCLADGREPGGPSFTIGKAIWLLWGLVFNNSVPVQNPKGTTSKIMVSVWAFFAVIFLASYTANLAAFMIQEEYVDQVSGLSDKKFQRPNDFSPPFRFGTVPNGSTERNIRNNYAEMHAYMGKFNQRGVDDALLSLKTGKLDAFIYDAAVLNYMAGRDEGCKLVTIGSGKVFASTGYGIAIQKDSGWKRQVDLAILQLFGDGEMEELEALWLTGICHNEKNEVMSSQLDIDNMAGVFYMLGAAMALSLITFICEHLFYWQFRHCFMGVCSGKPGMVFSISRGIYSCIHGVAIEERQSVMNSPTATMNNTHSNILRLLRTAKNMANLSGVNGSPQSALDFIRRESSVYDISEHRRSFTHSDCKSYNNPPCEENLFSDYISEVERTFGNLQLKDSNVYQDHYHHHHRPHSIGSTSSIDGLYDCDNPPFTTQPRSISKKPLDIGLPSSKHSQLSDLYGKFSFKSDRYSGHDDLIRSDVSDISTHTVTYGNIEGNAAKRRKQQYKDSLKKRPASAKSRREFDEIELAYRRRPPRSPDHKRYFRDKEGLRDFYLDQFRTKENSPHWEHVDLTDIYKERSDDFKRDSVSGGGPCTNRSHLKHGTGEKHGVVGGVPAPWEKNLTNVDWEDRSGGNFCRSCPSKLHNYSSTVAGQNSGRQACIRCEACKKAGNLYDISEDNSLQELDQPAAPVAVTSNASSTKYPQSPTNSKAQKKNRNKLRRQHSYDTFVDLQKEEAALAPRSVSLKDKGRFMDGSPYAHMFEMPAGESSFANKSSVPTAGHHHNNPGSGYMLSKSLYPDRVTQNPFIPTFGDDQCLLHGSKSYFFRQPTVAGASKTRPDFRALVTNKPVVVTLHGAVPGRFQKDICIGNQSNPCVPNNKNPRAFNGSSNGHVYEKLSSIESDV
T10 sequence (Q00960 27-1482 Q110A, other chains not shown): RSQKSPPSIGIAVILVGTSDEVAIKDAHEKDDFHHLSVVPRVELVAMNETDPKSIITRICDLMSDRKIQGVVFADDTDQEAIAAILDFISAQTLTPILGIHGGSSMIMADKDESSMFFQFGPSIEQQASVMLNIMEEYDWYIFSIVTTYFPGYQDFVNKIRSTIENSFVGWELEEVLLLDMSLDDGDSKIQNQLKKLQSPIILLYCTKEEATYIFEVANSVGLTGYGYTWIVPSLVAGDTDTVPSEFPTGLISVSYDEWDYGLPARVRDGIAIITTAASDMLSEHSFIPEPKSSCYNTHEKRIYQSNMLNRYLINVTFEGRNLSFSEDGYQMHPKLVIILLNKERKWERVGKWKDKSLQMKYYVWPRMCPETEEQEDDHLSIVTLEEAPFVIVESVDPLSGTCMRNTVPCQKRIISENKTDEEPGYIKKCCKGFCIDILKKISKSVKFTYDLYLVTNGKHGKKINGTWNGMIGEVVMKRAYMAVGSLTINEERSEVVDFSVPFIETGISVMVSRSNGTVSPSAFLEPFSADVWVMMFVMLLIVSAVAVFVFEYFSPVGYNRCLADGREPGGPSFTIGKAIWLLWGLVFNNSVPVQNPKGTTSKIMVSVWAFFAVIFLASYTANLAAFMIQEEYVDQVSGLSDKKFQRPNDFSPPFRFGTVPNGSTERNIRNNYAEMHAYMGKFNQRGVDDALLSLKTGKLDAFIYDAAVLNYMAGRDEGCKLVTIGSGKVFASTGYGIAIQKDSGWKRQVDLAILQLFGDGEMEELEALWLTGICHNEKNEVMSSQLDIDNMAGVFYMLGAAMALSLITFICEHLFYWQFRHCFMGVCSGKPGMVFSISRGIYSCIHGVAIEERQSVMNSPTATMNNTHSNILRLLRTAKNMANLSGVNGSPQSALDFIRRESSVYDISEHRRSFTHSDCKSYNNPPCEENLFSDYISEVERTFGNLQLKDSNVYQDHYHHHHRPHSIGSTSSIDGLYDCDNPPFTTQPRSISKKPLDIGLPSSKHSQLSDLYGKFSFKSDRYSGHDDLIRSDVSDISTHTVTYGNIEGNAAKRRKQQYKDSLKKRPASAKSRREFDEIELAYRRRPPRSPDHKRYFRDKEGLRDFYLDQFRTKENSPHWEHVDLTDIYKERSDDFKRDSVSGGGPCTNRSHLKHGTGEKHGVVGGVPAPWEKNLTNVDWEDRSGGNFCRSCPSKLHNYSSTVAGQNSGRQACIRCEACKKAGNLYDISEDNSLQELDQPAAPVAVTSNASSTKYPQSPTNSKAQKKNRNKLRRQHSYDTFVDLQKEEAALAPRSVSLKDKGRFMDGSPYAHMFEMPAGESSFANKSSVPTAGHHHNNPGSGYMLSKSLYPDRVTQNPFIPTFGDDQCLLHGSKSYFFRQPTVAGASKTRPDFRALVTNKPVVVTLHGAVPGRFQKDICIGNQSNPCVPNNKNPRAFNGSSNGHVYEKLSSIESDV
T11 sequence (Q00960 27-1482 F176Y, other chains not shown): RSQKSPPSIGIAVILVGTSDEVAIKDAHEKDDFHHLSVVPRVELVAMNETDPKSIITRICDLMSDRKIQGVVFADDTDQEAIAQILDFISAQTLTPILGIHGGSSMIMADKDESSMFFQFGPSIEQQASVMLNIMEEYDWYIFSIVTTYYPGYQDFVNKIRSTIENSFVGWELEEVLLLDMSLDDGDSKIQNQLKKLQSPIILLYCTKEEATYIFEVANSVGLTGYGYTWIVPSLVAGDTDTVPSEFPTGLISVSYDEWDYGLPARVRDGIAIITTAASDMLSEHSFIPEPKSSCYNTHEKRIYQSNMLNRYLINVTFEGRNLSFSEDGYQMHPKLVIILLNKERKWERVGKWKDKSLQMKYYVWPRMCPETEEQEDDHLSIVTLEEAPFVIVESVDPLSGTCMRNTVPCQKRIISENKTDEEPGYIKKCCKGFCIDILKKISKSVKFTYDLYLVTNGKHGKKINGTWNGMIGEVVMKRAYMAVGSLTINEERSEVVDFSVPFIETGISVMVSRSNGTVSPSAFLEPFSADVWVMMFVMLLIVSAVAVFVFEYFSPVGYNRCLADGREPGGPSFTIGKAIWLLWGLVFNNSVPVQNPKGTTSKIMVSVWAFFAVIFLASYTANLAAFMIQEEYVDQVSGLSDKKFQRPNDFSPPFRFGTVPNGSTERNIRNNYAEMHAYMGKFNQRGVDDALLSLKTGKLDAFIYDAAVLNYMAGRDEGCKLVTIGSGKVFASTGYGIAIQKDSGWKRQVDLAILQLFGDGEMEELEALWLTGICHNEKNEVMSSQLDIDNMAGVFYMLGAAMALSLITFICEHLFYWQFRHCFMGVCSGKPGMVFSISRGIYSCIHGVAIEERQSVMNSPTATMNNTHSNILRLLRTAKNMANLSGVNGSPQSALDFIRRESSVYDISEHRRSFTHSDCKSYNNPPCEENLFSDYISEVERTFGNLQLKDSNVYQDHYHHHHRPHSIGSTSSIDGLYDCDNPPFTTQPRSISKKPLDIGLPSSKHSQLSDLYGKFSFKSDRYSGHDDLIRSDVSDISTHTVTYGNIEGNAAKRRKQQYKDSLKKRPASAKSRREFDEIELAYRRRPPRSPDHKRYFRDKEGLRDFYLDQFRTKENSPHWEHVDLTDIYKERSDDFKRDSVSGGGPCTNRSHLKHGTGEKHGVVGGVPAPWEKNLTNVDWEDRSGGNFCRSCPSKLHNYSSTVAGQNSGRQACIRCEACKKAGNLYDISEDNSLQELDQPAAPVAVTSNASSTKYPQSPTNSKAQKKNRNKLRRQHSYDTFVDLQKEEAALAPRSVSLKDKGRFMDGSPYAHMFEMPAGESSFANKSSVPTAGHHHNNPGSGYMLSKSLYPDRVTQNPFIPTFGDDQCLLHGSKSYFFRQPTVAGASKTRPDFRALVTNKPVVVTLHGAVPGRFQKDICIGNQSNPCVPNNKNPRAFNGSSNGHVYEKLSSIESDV

Q: What does the source list for `C[C@@H]1[C@H](O)c2ccc(O)cc2CCN1CCCCc1ccccc1` [compound 2]?
A: p (slope) (GluN1-1a F113S/GluN2B WT [1]; GluN1-1a F113S): 0.57; A2 ± SE (GluN1-1a F113S/GluN2B WT [1]; GluN1-1a F113S, flexible A2): 100 ± 3%; IC50 shift factor (GluN1-1a F113S/GluN2B WT [1]; mutant IC50 / wildtype IC50, GluN1-1a F113S): 0.8; IC50 (GluN1-1a WT/GluN2B I111A [2]): 380 ± 82 nM; IC50 (GluN1-1a Y109S/GluN2B WT [3]): 140 ± 19 nM; inhibition at 10 µM (GluN1-1a/GluN2C NMDAR [4]): 56 ± 2%; inhibition at 10 µM (GluN1-1a/GluN2A NMDAR): 15 ± 5%; IC50 [5]: 91 ± 7 nM; p (slope of the dose-response curve) ([5]; TEVC, −70 mV, wildtype): 1.08; A2 ± SE (maximum inhibition from dose-response curve) ([5]; TEVC, −70 mV, wildtype, flexible A2): 97 ± 2%; inhibition at 10 µM ([5]; read-out: ion current inhibition % ± SEM, GluN2B): 95 ± 1%; p (slope) (GluN1-1a S132A/GluN2B WT [6]; GluN1-1a S132A): 0.78; A2 ± SE (GluN1-1a S132A/GluN2B WT [6]; GluN1-1a S132A, flexible A2): 100 ± 3%; IC50 shift factor (GluN1-1a S132A/GluN2B WT [6]; mutant IC50 / wildtype IC50, GluN1-1a S132A): 4.3; p (slope) (GluN1-1a L135N/GluN2B WT [7]; GluN1-1a L135N): 0.72; A2 ± SE (GluN1-1a L135N/GluN2B WT [7]; GluN1-1a L135N, flexible A2): 100 ± 5%; IC50 shift factor (GluN1-1a L135N/GluN2B WT [7]; mutant IC50 / wildtype IC50, GluN1-1a L135N): 9.2; p (slope) (GluN1-1a WT/GluN2B F176A [8]; GluN2B F176A): 0.94; A2, fixed-to-wildtype (*) (GluN1-1a WT/GluN2B F176A [8]; GluN2B F176A, maximum inhibition fixed to wildtype value): 97%; IC50 shift factor (GluN1-1a WT/GluN2B F176A [8]; mutant IC50 / wildtype IC50, GluN2B F176A): 19.9; IC50 (GluN1-1a WT/GluN2B E236A [9]): 108 ± 16 nM; inhibition at 10 µM (GluN1-1a/GluN2D NMDAR): 55 ± 2%; lower activity at GluN2C and GluN2D than at GluN2B subunit-containing NMDARs (GluN1-1a/GluN2C NMDAR [10]): at least 100 fold; p (slope) (GluN1-1a WT/GluN2B F114A [11]; GluN2B F114A): 1.03; A2, fixed-to-wildtype (*) (GluN1-1a WT/GluN2B F114A [11]; GluN2B F114A, maximum inhibition fixed to wildtype value): 97%; IC50 shift factor (GluN1-1a WT/GluN2B F114A [11]; mutant IC50 / wildtype IC50, GluN2B F114A): 7.3; IC50 (GluN1-1a WT/GluN2B F114A [12]): 667 ± 90 nM; p (slope) (GluN1-1a WT/GluN2B Q110A [13]; GluN2B Q110A): 1.79; A2 ± SE (GluN1-1a WT/GluN2B Q110A [13]; GluN2B Q110A, flexible A2): 95 ± 1%; IC50 shift factor (GluN1-1a WT/GluN2B Q110A [13]; mutant IC50 / wildtype IC50, GluN2B Q110A): 1.4; IC50 (GluN1-1a F113S/GluN2B WT [14]): 76 ± 17 nM; p (slope) (GluN1-1a WT/GluN2B I111A [15]; GluN2B I111A): 0.86; A2 ± SE (GluN1-1a WT/GluN2B I111A [15]; GluN2B I111A, flexible A2): 96 ± 4%; IC50 shift factor (GluN1-1a WT/GluN2B I111A [15]; mutant IC50 / wildtype IC50, GluN2B I111A): 4.2; IC50 (GluN1-1a WT/GluN2B Q110A [16]): 130 ± 6 nM; p (slope) (GluN1-1a WT/GluN2B F176Y [17]; GluN2B F176Y): 1.00; A2, fixed-to-wildtype (*) (GluN1-1a WT/GluN2B F176Y [17]; GluN2B F176Y, maximum inhibition fixed to wildtype value): 97%; IC50 shift factor (GluN1-1a WT/GluN2B F176Y [17]; mutant IC50 / wildtype IC50, GluN2B F176Y): 0.9; IC50 (GluN1-1a WT/GluN2B F176A [18]): 1810 ± 127 nM; IC50 (GluN1-1a S132A/GluN2B WT [19]): 387 ± 57 nM; p (slope) (GluN1-1a Y109S/GluN2B WT [20]; GluN1-1a Y109S): 0.86; A2 ± SE (GluN1-1a Y109S/GluN2B WT [20]; GluN1-1a Y109S, flexible A2): 96 ± 2%; IC50 shift factor (GluN1-1a Y109S/GluN2B WT [20]; mutant IC50 / wildtype IC50, GluN1-1a Y109S): 1.5; IC50 (GluN1-1a WT/GluN2B F176Y [21]): 84 ± 9 nM; IC50 (GluN1-1a L135N/GluN2B WT [22]): 835 ± 184 nM; p (slope) (GluN1-1a WT/GluN2B E236A [23]; GluN2B E236A): 1.09; A2 ± SE (GluN1-1a WT/GluN2B E236A [23]; GluN2B E236A, flexible A2): 95 ± 3%; IC50 shift factor (GluN1-1a WT/GluN2B E236A [23]; mutant IC50 / wildtype IC50, GluN2B E236A): 1.2

Source: article PMC6858350, “A common mechanism allows selective targeting of GluN2B subunit-containing N-methyl-D-aspartate receptors” (Communications Biology, 2019)
